Source: ChEMBL document CHEMBL4316596, “Antimicrobial Peptides with High Proteolytic Resistance for Combating Gram-Negative Bacteria” (J Med Chem, 2019)
The source made the active and inactive calls. No cut-off for these calls is given here.

How the values were obtained:
Escherichia coli [1] = assay: Antimicrobial activity against Escherichia coli ATCC 25922 after 24 hrs by NCCLS-protocol based assay; type: functional; conditions: ATCC 25922, 24 h
Escherichia coli [2] = assay: Antimicrobial activity against Escherichia coli UB1005 after 24 hrs by NCCLS-protocol based assay; type: functional; conditions: UB1005, 24 h
Escherichia coli [3] = assay: Antimicrobial activity against Escherichia coli 078 after 24 hrs by NCCLS-protocol based assay; type: functional; conditions: Escherichia coli, 078, 24 h
Escherichia coli [4] = assay: Antimicrobial activity against Escherichia coli K88 after 24 hrs by NCCLS-protocol based assay; type: functional; conditions: K88, 24 h
Pseudomonas aeruginosa [5] = assay: Antimicrobial activity against Pseudomonas aeruginosa ATCC 27853 after 24 hrs by NCCLS-protocol based assay; type: functional; conditions: ATCC 27853, 24 h
Pseudomonas aeruginosa [6] = assay: Antimicrobial activity against Pseudomonas aeruginosa CICC 21625 clinical isolates after 24 hrs by NCCLS-protocol based assay; type: functional; conditions: CICC 21625, 24 h
Pseudomonas aeruginosa [7] = assay: Antimicrobial activity against Pseudomonas aeruginosa 25349 clinical isolates after 24 hrs by NCCLS-protocol based assay; type: functional; conditions: Pseudomonas aeruginosa, 25349, 24 h
Pseudomonas aeruginosa [8] = assay: Antimicrobial activity against Pseudomonas aeruginosa ATCC 27853 at sub-MBC after 60 passages; type: functional, organism-based
HEK-293T = assay: Cytotoxicity against HEK293T cells assessed as cell death after 18 to 24 hrs by MTT assay; type: cell-based; conditions: Homo sapiens
[9] = Selectivity ratio of IC50 for HEK293T cells to geometric mean of the peptide MBC for bacteria
Escherichia coli [10] = assay: Bactericidal activity against Escherichia coli ATCC 25922 incubated for 4 hrs followed by culture spread on agar plates and cultured overnight in presence of FeCl3; type: functional; conditions: ATCC 25922, 4 h, read-out: MBC>99.9
Escherichia coli [11] = assay: Bactericidal activity against Escherichia coli ATCC 25922 incubated for 4 hrs followed by culture spread on agar plates and cultured overnight in presence of NH4Cl; type: functional; conditions: ATCC 25922, 4 h, read-out: MBC>99.9
Escherichia coli [12] = assay: Bactericidal activity against Escherichia coli ATCC 25922 incubated for 4 hrs followed by culture spread on agar plates and cultured overnight in presence of 50% serum albumin; type: functional; conditions: ATCC 25922, 4 h, read-out: MBC>99.9
Escherichia coli [13] = assay: Bactericidal activity against Escherichia coli ATCC 25922 incubated for 4 hrs followed by culture spread on agar plates and cultured overnight in presence of 25% serum albumin; type: functional; conditions: ATCC 25922, 4 h, read-out: MBC>99.9
Escherichia coli [14] = assay: Bactericidal activity against Escherichia coli ATCC 25922 incubated for 4 hrs followed by culture spread on agar plates and cultured overnight in presence of 4 mg/ml trypsin; type: functional; conditions: ATCC 25922, 4 h, read-out: MBC>99.9
Escherichia coli [15] = assay: Bactericidal activity against Escherichia coli ATCC 25922 incubated for 4 hrs followed by culture spread on agar plates and cultured overnight in presence of 2 mg/ml trypsin; type: functional; conditions: ATCC 25922, 4 h, read-out: MBC>99.9
Escherichia coli [16] = assay: Bactericidal activity against Escherichia coli ATCC 25922 incubated for 4 hrs followed by culture spread on agar plates and cultured overnight in presence of 1 mg/ml trypsin; type: functional; conditions: ATCC 25922, 4 h, read-out: MBC>99.9
Escherichia coli [17] = assay: Bactericidal activity against Escherichia coli ATCC 25922 incubated for 4 hrs followed by culture spread on agar plates and cultured overnight in presence of 0.5 mg/ml trypsin; type: functional; conditions: ATCC 25922, 4 h, read-out: MBC>99.9
Escherichia coli [18] = assay: Bactericidal activity against Escherichia coli ATCC 25922 incubated for 4 hrs followed by culture spread on agar plates and cultured overnight in presence of 0.125 mg/ml trypsin; type: functional; conditions: ATCC 25922, 4 h, read-out: MBC>99.9
Escherichia coli [19] = assay: Bactericidal activity against Escherichia coli ATCC 25922 incubated for 4 hrs followed by culture spread on agar plates and cultured overnight in presence of 4 mg/ml chymotrypsin; type: functional; conditions: ATCC 25922, 4 h, read-out: MBC>99.9
Escherichia coli [20] = assay: Bactericidal activity against Escherichia coli ATCC 25922 incubated for 4 hrs followed by culture spread on agar plates and cultured overnight in presence of 1 mg/ml chymotrypsin; type: functional; conditions: ATCC 25922, 4 h, read-out: MBC>99.9
Escherichia coli [21] = assay: Bactericidal activity against Escherichia coli ATCC 25922 incubated for 4 hrs followed by culture spread on agar plates and cultured overnight in presence of 0.5 mg/ml chymotrypsin; type: functional; conditions: ATCC 25922, 4 h, read-out: MBC>99.9
Escherichia coli [22] = assay: Antibacterial activity against Escherichia coli ATCC 25922 infected in ICR mouse assessed as log reduction in bacterial cells in spleen at 5 mg/kg, ip administered at 5 mg/kg, ip dosed at 0.5, 2, 4 and 8 hrs post-infection; type: functional
Escherichia coli [23] = assay: Induction of outer membrane permeabilization in Escherichia coli ATCC 25922 at 1 uM by NPN-dye based assay relative to control
Escherichia coli [24] = assay: Induction of cytoplasmic membrane depolarization in Escherichia coli ATCC 25922 at 2 uM up to 5000 secs by DiSC3-5 dye-based fluorescence spectrophotometric method; type: functional, organism-based
Escherichia coli [25] = assay: Bactericidal activity against Escherichia coli K99 incubated for 4 hrs followed by culture spread on agar plates and cultured overnight; type: functional; conditions: K99, 4 h, read-out: MBC>99.9
Pseudomonas aeruginosa [26] = assay: Bactericidal activity against Pseudomonas aeruginosa PAO1 incubated for 4 hrs followed by culture spread on agar plates and cultured overnight; type: functional; conditions: PAO1, 4 h, read-out: MBC>99.9
Pseudomonas aeruginosa [27] = assay: Bactericidal activity against Pseudomonas aeruginosa 26305 clinical isolates incubated for 4 hrs followed by culture spread on agar plates and cultured overnight; type: functional; conditions: Pseudomonas aeruginosa, 26305, 4 h; read-out: MBC>99.9
Pseudomonas aeruginosa [28] = assay: Bactericidal activity against Pseudomonas aeruginosa CICC 21625 clinical isolates incubated for 4 hrs followed by culture spread on agar plates and cultured overnight; type: functional; conditions: CICC 21625, 4 h, read-out: MBC>99.9
Salmonella typhimurium = assay: Bactericidal activity against Salmonella typhimurium C7731 incubated for 4 hrs followed by culture spread on agar plates and cultured overnight; type: functional, Salmonella enterica subsp. enterica serovar Typhimurium; conditions: Salmonella enterica, C7731, 4 h; read-out: MBC>99.9
Acinetobacter baumannii = assay: Bactericidal activity against Acinetobacter baumannii incubated for 4 hrs followed by culture spread on agar plates and cultured overnight; type: functional; conditions: read-out: MBC>99.9
Klebsiella pneumoniae = assay: Bactericidal activity against Klebsiella pneumoniae incubated for 4 hrs followed by culture spread on agar plates and cultured overnight; type: functional; conditions: read-out: MBC>99.9
[29] = Hemolytic activity against human RBC at 1 to 128 uM after 1 hr; type: ADME, cell-based, Erythrocyte; conditions: red blood cells (erythrocytes), read-out: Activity
Chymotrypsin [30] = target: T1, Chymotrypsin (Homo sapiens, UniProt Q99895+P17538+P40313+Q6GPI1); assay: Stability of the compound assessed as chymotrypsin (unknown origin)-mediated compound hydrolysis after 8 hrs by SDS-PAGE analysis; type: ADME, protein assay
[31] = Stability of the compound assessed as Tritirachium album proteinase K-mediated compound hydrolysis after 8 hrs by SDS-PAGE analysis; type: ADME; conditions: parengyodontium album
[32] = Stability of the compound assessed as Tritirachium album proteinase K-mediated compound hydrolysis by measuring compound helicity by CD spectroscopy; type: ADME; conditions: parengyodontium album
Escherichia coli [33] = assay: Induction of cytoplasmic membrane depolarization in Escherichia coli ATCC 25922 assessed as induction cytoplasmic ONPG release at 2 to 16 uM up to 120 mins by DiSC3-5 dye-based fluorescence spectrophotometric method; type: functional, organism-based
Chymotrypsin [34] = target: T1, Chymotrypsin; assay: Stability of the compound assessed as chymotrypsin (unknown origin)-mediated compound hydrolysis after 4 hrs by SDS-PAGE analysis; type: ADME, protein assay
Chymotrypsin [35] = target: T1, Chymotrypsin; assay: Stability of the compound assessed as chymotrypsin (unknown origin)-mediated compound hydrolysis by measuring compound helicity by CD spectroscopy; type: ADME, protein assay
[36] = Stability of the compound assessed as pepsin (unknown origin)-mediated compound hydrolysis by measuring compound helicity by CD spectroscopy; type: ADME; conditions: human

| Substance | MIC95 (Escherichia coli [1]) | MIC95 (Escherichia coli [2]) | MIC95 (Escherichia coli [3]) | MIC95 (Escherichia coli [4]) | MIC95 (Pseudomonas aeruginosa [5]) | MIC95 (Pseudomonas aeruginosa [6]) | MIC95 (Pseudomonas aeruginosa [7]) | Activity (Pseudomonas aeruginosa [8]) | IC50 (HEK-293T) | Ratio [9] | MBC (Escherichia coli [10]) | MBC (Escherichia coli [11]) | MBC (Escherichia coli [12]) | MBC (Escherichia coli [13]) | MBC (Escherichia coli [14]) | MBC (Escherichia coli [15]) | MBC (Escherichia coli [16]) | MBC (Escherichia coli [17]) | MBC (Escherichia coli [18]) | MBC (Escherichia coli [19]) | further results |
| --- | --- | --- | --- | --- | --- | --- | --- | --- | --- | --- | --- | --- | --- | --- | --- | --- | --- | --- | --- | --- | --- |
| H-IRPIIRPIIRPIIRPIIRPIIRPIIRPI-NH2 | 1 µM | 2 µM | 1 µM | 1 µM | 4 µM | 64 µM | 32 µM | Active | 324 µM | 65.19 | 2 µM | 2 µM | 16 µM | 8 µM | 2 µM | 2 µM | 2 µM | 2 µM | 2 µM | 2 µM | MBC (Escherichia coli [20]): 2 µM; MBC (Escherichia coli [21]): 2 µM; log(activity) (Escherichia coli [22]): 1.6; Activity (Escherichia coli [23]): >50%; Activity (Escherichia coli [24]): Active; MBC (Escherichia coli [25]): 2 µM; MBC (Pseudomonas aeruginosa [26]): 8 µM; MBC (Pseudomonas aeruginosa [27]): 64 µM; MBC (Pseudomonas aeruginosa [28]): 64 µM; MBC (Salmonella typhimurium): 2 µM; MBC (Acinetobacter baumannii): 1 µM; MBC (Klebsiella pneumoniae): 4 µM; hemolysis at 1 h, up to 128 µM [29]: < 5%; Stability (Chymotrypsin [30]): Stable; Stability [31]: Stable; Stability [32]: Unstable; Activity (Escherichia coli [33]): Active |
| H-LKPLLKPLLKPLLKPLLKPLLKPLLKPL-NH2 | 0.5 µM | 1 µM | 2 µM | 0.5 µM | 2 µM | 8 µM | 8 µM | Active | 47.4 µM | 17.49 | 2 µM | 1 µM | 64 µM | 8 µM | 1 µM | 1 µM | 1 µM | 1 µM | 1 µM | > 64 µM | MBC (Escherichia coli [20]): 1 µM; MBC (Escherichia coli [21]): 1 µM; log(activity) (Escherichia coli [22]): 1; MBC (Escherichia coli [25]): 2 µM; MBC (Pseudomonas aeruginosa [26]): 1 µM; MBC (Pseudomonas aeruginosa [27]): 16 µM; MBC (Pseudomonas aeruginosa [28]): 16 µM; MBC (Salmonella typhimurium): 2 µM; MBC (Acinetobacter baumannii): 1 µM; MBC (Klebsiella pneumoniae): 2 µM; Stability (Chymotrypsin [34]): Unstable; Stability (Chymotrypsin [35]): Unstable; Stability [36]: Unstable |
| H-LRPLLRPLLRPLLRPLLRPLLRPLLRPL-NH2 | 1 µM | 2 µM | 1 µM | 1 µM | 1 µM | 8 µM | 4 µM | Active | 19.2 µM | 7.42 | 2 µM | 2 µM | 16 µM | 8 µM | 2 µM | 2 µM | 2 µM | 2 µM | 2 µM | > 64 µM | MBC (Escherichia coli [20]): > 64 µM; MBC (Escherichia coli [21]): 2 µM; log(activity) (Escherichia coli [22]): 1; MBC (Escherichia coli [25]): 2 µM; MBC (Pseudomonas aeruginosa [26]): 2 µM; MBC (Pseudomonas aeruginosa [27]): 8 µM; MBC (Pseudomonas aeruginosa [28]): 8 µM; MBC (Salmonella typhimurium): 2 µM; MBC (Acinetobacter baumannii): 1 µM; MBC (Klebsiella pneumoniae): 4 µM; Stability (Chymotrypsin [34]): Unstable; Stability (Chymotrypsin [35]): Unstable; Stability [36]: Unstable |
